Experimental findings from patent US20100190813A1, “SPIRO [PIPERIDINE-4- 4' -THIENO [3,2-C] PYRAN] DERIVATIVES AND RELATED COMPOUNDS AS INHIBITORS OF THE SIGMA RECEPTOR FOR THE TREATMENT OF PSYCHOSIS” (priority 2007, published 2010) are described below.

For orientation: Ki means a dissociation constant, usually derived from enzyme kinetics or from competition with a known ligand. What is called melting point is the temperature of the solid-liquid transition.

The target of data set [1] is T1, σ1-receptor (Cavia porcellus, UniProt Q60492).
T1 construct: the σ1-receptor preparation was prepared from guinea pig brain; from tissue; host or cells: guinea pig brain membrane homogenate
Briefly: Sigma 1 receptor binding (Version B), [3H]-(+)-Pentazocin displacement. More on the design: species or system guinea pig. The note with it: version B; guinea pig brain preparation; [3H]-(+)-Pentazocin 2 nM; read-out: Binding σ1 Ki. The protocol: In brief the σ1-receptor preparation was prepared from guinea pig brain. The brains were homogenized in 5 to 6 times of volume sucrose solution (0.32M) and homogenized. The homogenate was centrifuged at 2900 rpm, 4° C., 10 min). the supernatant was centrifuged again (23500×g, 4° C., 20 min). The pellet was resuspended in Tris-buffer, incubated for 30 min at room temperature and centrifuged f (23500×g, 4° C., 20 min). The pellet was resuspended in cold TRIS-buffer and homogenized. Then the protein content was measured (approx. 1.5 mg/mL) and the homogenate frozen at −80° C. for later use.
The radioligand used was [^3H]-(+)-Pentazocin in TRIS-buffer. In a volume of 200 μL 50 μL TRIS-buffer, 50 μL compound solution of varying concentration, 50 μL radioligand-solution (8 nM; resulting in 2 nM in the assay) and finally 50 μL of receptor preparation (approx. 1.5 mg/mL) were given into a well of a microplate equipped with a filter. The plate was closed and stirred for 2.5 h at 37° C. and 500 rpm. Following that the solvents were removed by a harvester through the filter. After rinsing with H2O the filter was measured in a scintillation counter ([^3H]-protocol).

The next data set addresses T2, σ2-receptor (Rattus norvegicus, UniProt Q5U3Y7).
T2 construct: the σ2-Receptorpreparation was prepared from rat liver; from tissue; host or cells: rat liver membrane homogenate
T2 sequence (Q5U3Y7 1-176): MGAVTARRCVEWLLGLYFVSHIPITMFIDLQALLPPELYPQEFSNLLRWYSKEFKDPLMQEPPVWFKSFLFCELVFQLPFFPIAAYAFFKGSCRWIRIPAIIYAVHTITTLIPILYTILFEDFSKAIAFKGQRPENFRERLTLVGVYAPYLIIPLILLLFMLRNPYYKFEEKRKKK
The data set can be described thus: Sigma 2 receptor binding (Version B), [3H]-Ditolylguanidin displacement. The note with it: version B, rat liver preparation, [3H]-Ditolylguanidin 3 nM, σ1 sites masked with (+)-Pentazocin 500 nM. The protocol: In brief the σ2-Receptorpreparation was prepared from rat liver. The livers were homogenized in 5 to 6 times of volume sucrose solution (0.32M) and homogenized. The homogenate was centrifuged at 2900 rpm, 4° C., 10 min). the supernatant was centrifuged again (31000×g, 4° C., 20 min). The pellet was resuspended in TRIS-buffer, incubated for 30 min at room temperature while stirring and centrifuged f (31000×g, 4° C., 20 min). The pellet was resuspended in cold TRIS-buffer pH 8 and homogenized. Then the protein content was measured (approx. 2 mg/mL) and the homogenate frozen at −80° C. for later use.
The radioligand used was [^3H]-Ditolylguanidin in TRIS-buffer pH 8. The σ1-receptor binding sites were masked through (+)-Pentazocin-solution in TRIS-Puffer pH 8.
In a volume of 200 μL 50 μL compound solution of varying concentration, 50 μL (+)-Pentazocin-solution ([…]; resulting in 500 nM in the assay), 50 μL radioligand-solution (12 nM; resulting in 3 nM in the assay) and finally 50 μL of receptor preparation (approx. 2 mg/mL) were given into a well of a microplate equipped with a filter. The plate was closed and stirred for 2 h at room temperature and 500 rpm. Following that the solvents were removed by a harvester through the filter. After rinsing with H2O the filter was measured in a scintillation counter ([^3H]-protocol).

For data set [2], the target named is T1, σ1-receptor. The data set can be described thus: Sigma-1 receptor binding (Version A), [3H]-(+)-pentazocine displacement. More on the design: species or system guinea pig.

Where two headings read alike, the source gives them in different places.

T1 sequence (Q60492 whole entry): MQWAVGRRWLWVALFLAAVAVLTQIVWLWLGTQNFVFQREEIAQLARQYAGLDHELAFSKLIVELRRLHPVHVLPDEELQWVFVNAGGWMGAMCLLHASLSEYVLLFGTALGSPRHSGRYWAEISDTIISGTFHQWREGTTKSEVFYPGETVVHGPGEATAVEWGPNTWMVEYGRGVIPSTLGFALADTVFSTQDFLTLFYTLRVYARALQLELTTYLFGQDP

On to `c1cc2c(s1)CCOC21CCN(CC2CCCCC2)CC1` [Example 26, 1-(Cyclohexylmethyl)-6′,7′-dihydrospiro[piperidine-4,4′-thieno[3,2-c]pyrano]], for which the melting point came to 77 °C. Moreover, the Ki on σ1-receptor [1] is 0.66 ± 0.27 nM. Further, the Ki at σ2-receptor (Binding σ2 Ki [nM]) was determined as 3.27 ± 0.53 nM.

`COC1Cc2sccc2C2(CCN(Cc3ccccc3)CC2)O1` (stereo not shown) [Example 3, 1-Benzyl-6′-methoxy-6′,7′-dihydrospiro[piperidin-4,4′-thieno[3.2-c]pyran]] gave a melting point of 78 °C. On σ1-receptor [1], the Ki is 0.32 ± 0.16 nM. For the same compound, the inhibition constant (Ki) at σ2-receptor (read-out: Binding σ2 Ki) was 1260 nM. Moreover, at σ1-receptor [2], affinity was put at a Ki of 2.4 ± 0.3 nM.
